Where a name gives a salt, the structure may show the parent alone. Read-outs that look alike come from different tables or passages of the source.
How the values were obtained:
[1] = Cell toxicity in HIV-1 infected CEM-GXR cultures (forward/side scatter); assay type: cell-based; details: human, HIV-1NL4-3-infected CEM-GXR cells (CD4+ T-lymphocyte line), Day 4
Protocol: (§1) CEM-GXR cells are an immortalized CD4+ T-lymphocyte line engineered that naturally express the HIV-1 coreceptor CXCR4 and have been further engineered to express the HIV-1 co-receptor CCR5 and a Tat-driven LTR-GFP expression cassette. As such, intracellular GFP expression indicates HIV-1 infection. Cultures of 10^5 CEM-GXR cells were seeded into 96-well plates with RPMI-1640 media (Sigma) supplemented with penicillin/streptomycin plus 20% fetal calf serum (R20+), infected with HIV-1 at a multiplicity of infection of 0.03 (to achieve 3% infected cells on Day 2), and incubated at 37°C and 5% CO2. 24 hours later, cells were pelleted at 750 g and resuspended in R20+ containing compound or 0.1% DMSO. […] Cells were then incubated at 37°C and 5% CO2 for an additional 72 h. 5,000 cells from each culture were measured for cell toxicity and GFP expression by flow cytometry. Flow cytometry data were analyzed using FlowJo v. 8.8.7 software (FlowJo LLC, Ashland, OR). […] Background GFP expression in uninfected cultures was set at 0.05% GFP-positive cells. For each experiment, all data points were obtained in triplicate. All data are reported as the mean ± s.e.m. from at least 3 independent experiments performed with different virus stocks and/or performed on different days. However, all experiments that compare HIV-1NL4-3 and mutant HIV-1 were performed in parallel. EC50 and CC50 values for each compound were calculated from at least four concentrations. Statistical analyses were performed using Student’s unpaired t test, with a p value < 0.05 plus a Bonferroni correction to adjust for multiple comparisons considered significant.
(§2) To assess the effects of these eight compounds on cell viability and HIV-1 replication, we infected a GFP-reporter CEM CD4+ T cell line (CEM-GXR) with the NL4-3 strain of HIV-1 (HIV-1NL4-3). Briefly, cells were infected with HIV-1NL4-3 at a multiplicity of infection of 0.03 (Day 0), followed by removal of HIV-1 and addition of compound (or 0.1% DMSO vehicle control) 24 hours later (Day 1) and incubation for an additional 72 hours to allow HIV-1 spread (Days 2–4). On Days 2 and/or 4, the percent HIV-1 infected (i.e., GFP-expressing) cells was measured by flow cytometry. Cell viability was assessed by measuring the percentage of cells displaying normal forward- and side-scatter parameters in drug-treated, HIV-1 infected cultures compared to 0.1% DMSO-treated, HIV-1 infected control cultures. […] HIV-1NL4-3 replication was unaffected by the presence of 0.1% DMSO vehicle control (Fig. 2B).

[2] = tested on: HIV-1NL4-3; test: microbe, parasite or virus in culture; assay type: cell-based; details: for HIV-1 inhibition in the viral replication assay (in words): up to 100 μM; for EC50: read-out: HIV-1NL4-3 inhibition (EC50); for replication of HIV-1NL4-3 in CEM-GXR cells (in words): 0.1 μM
Protocol: as §1, §2

[3] = tested on: HIV-1Δvpu; test: HIV-1Δvpu replication in CEM-GXR cells; assay type: cell-based; details: 0.1 μM, Day 4
Protocol: (§3) HIV-1Δvpu was constructed by digesting plasmid p210-13 3’ Δ-vpu with EcoRI and NheI enzymes. The resulting DNA fragment was then ligated into wild-type pNL4-3 plasmid digested with the same enzymes. HIV-1Δvpu and HIV-1NL4-3 viral stocks were prepared by transfection of HEK-293T cells, as previously described. Patient plasma-HIV-1 RNA sequences were analyzed for resistance mutations using the HIV Drug Resistance Database Genotype Resistance Interpretation Algorithm (hivdb.stanford.edu). Recombinant HIV-1NL4-3 expressing patient-derived HIV-1 sequences harboring resistance mutations to protease and reverse transcriptase inhibitors (HIV-1PR+RT), reverse transcriptase inhibitors (HIV-1RT), and integrase inhibitors (HIV-1INT) were generated by homologous recombination following co-transfection as reported.
as §1
(§4) To investigate the mechanisms by which ixoratannin A-2 and boldine may block HIV-1 replication, we used a previously-reported HIV-1NL4-3 strain lacking the Vpu coding region (HIV-1Δvpu). We also constructed recombinant HIV-1NL4-3 strains harboring protease, reverse transcriptase, and/or integrase sequences of HIV-1 strains from patients who had developed resistance to the protease inhibitor Indinavir (IND), the non-nucleoside reverse transcriptase inhibitor Efavirenz (EFV), and/or the integrase inhibitor Raltegravir (RAL) (denoted HIV-1PR+RT, HIV-1RT, and HIV-1INT, respectively). Re-sequencing of the recombinant viruses confirmed the presence of multiple mutations known to confer resistance to IND, EFV, and/or RAL (Table 2).

[4] = tested on: HIV-1RT; test: microbe, parasite or virus in culture; assay type: cell-based; details: 0.1 μM, CEM-GXR cells, Day 4
Protocol: CEM-GXR cells are an immortalized CD4+ T-lymphocyte line engineered that naturally express the HIV-1 coreceptor CXCR4 and have been further engineered to express the HIV-1 co-receptor CCR5 and a Tat-driven LTR-GFP expression cassette. As such, intracellular GFP expression indicates HIV-1 infection [26]. Cultures of 10^5 CEM-GXR cells were seeded into 96-well plates with RPMI-1640 media (Sigma) supplemented with penicillin/streptomycin plus 20% fetal calf serum (R20+), infected with HIV-1 at a multiplicity of infection of 0.03 (to achieve 3% infected cells on Day 2), and incubated at 37°C and 5% CO2. 24 hours later, cells were pelleted at 750 g and resuspended in R20+ containing compound or 0.1% DMSO. […] Cells were then incubated at 37°C and 5% CO2 for an additional 72 h. 5,000 cells from each culture were measured for cell toxicity and GFP expression by flow cytometry. […] Background GFP expression in uninfected cultures was set at 0.05% GFP-positive cells. For each experiment, all data points were obtained in triplicate. All data are reported as the mean ± s.e.m. from at least 3 independent experiments performed with different virus stocks and/or performed on different days. […] EC50 and CC50 values for each compound were calculated from at least four concentrations. Statistical analyses were performed using Student’s unpaired t test, with a p value < 0.05 plus a Bonferroni correction to adjust for multiple comparisons considered significant.

[5] = tested on: HIV-1PR+RT; test: HIV-1PR+RT replication in CEM-GXR cells; assay type: cell-based; details: 0.1 μM, CEM-GXR cells, Day 4
Protocol: as §3, §1, §4

[6] = tested on: HCV J4(1b)/JFH1(2a) chimera; test: HCV replication assay in Huh-7.5 cells (NS5A flow cytometry); assay type: cell-based; details: Hepatitis C virus, Huh7.5, 72 h, read-out: inhibition of HCV replication
Protocol: The intergenotypic chimeric HCV used in this study—Bi-Gluc-J4(1b)/JFH1(2a) containing cell culture adaptive mutations in NS2 (T2996C) and NS3 (A4827T)—was previously described and subsequently modified to express Gaussia luciferase in the first cistron. HCV stocks used for infection were generated by electroporation of in vitro transcribed RNA into Huh-7.5.1 cells and pooling of supernatants harvested between 60–96 hr post-electroporation. HCV infectivity was determined by limiting dilution assay as previously described.
HCV cell culture was performed as described previously. Briefly, 4*10^4 Huh-7.5 cells were seeded into 24-well plates and incubated at 37°C and 5% CO2 overnight. Cells were then infected with HCV (multiplicity of infection = 0.3) for 6 hours, followed by removal of HCV and incubation with fresh medium containing compounds at stated concentrations. Cultures were then incubated for 72 hours, with no more than 0.1% DMSO present in culture medium. Cells were then trypsinized, resuspended in culture medium, and stained with the 9E10 alexa-fluor-conjugated antibody to NS5A [27]. Cells were fixed and analyzed for NS5A fluorescence by flow cytometry, and data were analyzed using FlowJo software. […] For each culture, NS5A fluorescence was determined as the percent gated cells relative to percent gated cells in infected cultures plus 0.1% DMSO. All experiments were performed in at least duplicate in at least two independent experiments.
We therefore assessed the effects of ixoratannin A-2, boldine, and BIT-225 on replication of HCV, which also encodes a viral ion channel and protease. Using an established cell culture system, Huh-7.5 cells were infected with an intergenotypic chimera between the J4 (genotype 1b) and JFH1 (genotype 2a) strain of HCV for 6 hours, followed by incubation with fresh medium containing compounds at defined concentrations. Infected cells were then incubated for an additional 72 hours. NS5A expression, a marker of HCV infection, was then detected by flow cytometry.

[7] = tested on: HIV-1INT; test: HIV-1INT replication in CEM-GXR cells; assay type: cell-based; details: 0.1 μM, CEM-GXR cells, Day 4
Protocol: as §3, §1, §4

[8] = in vitro; assay type: cell-based; details: human
[9] = tested on: monocyte derived macrophages; details: cited from earlier work
[10] = tested on: HIV-1NL4-3; test: HIV-1 replication assay in PBMCs (p24Gag ELISA); assay type: cell-based; details: 10 μM, Day 12
Protocol: PBMCs from HIV-1 negative subjects, purchased commercially (StemCell Technologies, Vancouver, Canada), were maintained in RPMI-1640 media (Sigma) supplemented with penicillin/streptomycin plus 10% fetal calf serum (R10+). 72 h prior to viral infection, PBMCs were stimulated by addition of 5 μg/mL phytohaemaglutanin (PHA) (Day 0) and maintained in R10+ medium supplemented with 100 units/mL human IL-2. At Day 3 following cellular activation, 3x10^5 cells were infected with HIV-1NL4-3 at a multiplicity of infection of 0.003 (0.3% infected cells) and incubated at 37°C for 6h, followed by wash and re-suspension in fresh R10+ medium supplemented with 100 units/mL human IL-2 and with or without compounds at defined concentrations. Culture supernatants were collected and replaced with fresh medium supplemented with human IL-2 every 3 days (i.e., Days 6, 9, and 12) with or without fresh compounds. Viral replication at day 12 was monitored by measuring cell culture supernatant levels of p24^Gag by ELISA (XpressBio, Frederick, MD) following manufacturer’s instructions.

[11] = tested on: SupT1 and CEM-SS cells; details: cited from earlier work
[12] = tested on: Madin-Darby bovine kidney cells; parameters: method as in PMID 20832370; details: read-out: CC50 in bovine viral diarrhea virus-infected Madin-Darby bovine kidney cells; cited from earlier work
[13] = PBMC cytotoxicity (ViaCount Assay); assay type: cell-based; details: human, PHA-activated PBMCs; Day 5, ViaCount
Protocol: Cytotoxicity was determined by ViaCount Assay (Millipore). Briefly, Day 3 PHA-activated PBMCs (3*10^5) were cultured in R10+ supplemented with 100 units/mL human IL-2 in the presence of 0.1% DMSO or compounds at defined concentrations. At Day 5, 15 μL of each PBMC culture was mixed with Guava ViaCount Reagent at a 1:10 dilution. Data were collected using a Guava EasyCyte HT Flow Cytometer (Millipore).

[14] = tested on: CEM-GXR cells; test: Cell toxicity in HIV-1 infected CEM-GXR cultures (forward/side scatter); assay type: cell-based; details: HIV-1NL4-3-infected CEM-GXR cells, Day 4
Protocol: as §1, §2

[15] = Human immunodeficiency virus 1, 96 h, CEM-GXR cells, Day 4

| SMILES | CC50 at 72 h [1] [µM] | HIV-1 inhibition in the viral replication assay (in words) ([2]; CEM-GXR cells) | EC50 [2, 15] [µM] | replication of HIV-1Δvpu in CEM-GXR cells (in words) [3] | replication of HIV-1NL4-3 in CEM-GXR cells (in words) ([2]; Day 4) | also measured |
| --- | --- | --- | --- | --- | --- | --- |
| O=c1oc2c(O)c(O)cc3c(=O)oc4c(O)c(O)cc1c4c23 [EA, ellagic acid] | 52.3 | did not observe these activities | > 100 | – | – | – |
| O=C1Nc2ccc(Cl)cc2[C@@](C#CC2CC2)(C(F)(F)F)O1 [EFV, Efavirenz, reference compound] | – | – | – | inhibited | inhibited | HIV-1RT replication fold greater than HIV-1NL4-3 [4]: 3.4 fold; HIV-1PR+RT replication fold higher than HIV-1NL4-3 [5]: 2.6 fold |
| CC(=O)c1c(O)cc(OC2OC(O)C(O)C(O)C2O)c(-c2c(C)cc(O)c3c2C(=O)c2cccc(O)c2C3=O)c1O (stereo not drawn) [2MA, 1-(3-acetyl-2,4-dihydroxy-6-((3,4,5,6-tetrahydroxytetrahydro-2H-pyran-2-yl)oxy)phenyl)-4,5-dihydroxy-2-methylanthracene-9,10-dione] | 50.9 | did not inhibit HIV-1 | > 100 | – | – | – |
| CC(N)C12CC3CC(CC(C3)C1)C2 (stereo not drawn) [rimantadine, rimantadine hydrochloride, reference compound] | – | – | – | – | – | inhibition at 50 µM [6]: 40.7% |
| Cc1nnc(C(=O)NC(C)(C)c2nc(C(=O)NCc3ccc(F)cc3)c(O)c(=O)n2C)o1 [RAL, Raltegravir, reference compound] | – | – | – | inhibited | inhibited | HIV-1INT replication fold higher than HIV-1NL4-3 [7]: 1.7 fold |
| Cn1cc(-c2cccc3cc(C(=O)NC(=N)N)ccc23)cn1 [BIT-225, reference compound] | 10.7 | – | – | – | – | CC50 at 72 h [8]: 52.9 µM; CC50 [9]: 167 to 284 µM; inhibition at 30 µM [6]: 37.5%; reduced HIV-1 replication in PBMCs (p24Gag) [10]: 31.8%; CC50 [11]: 32 to 67 µM; CC50 [12]: 11.6 µM; CC50 [13]: 12.8 µM |
| O=C1OCc2cc3cccc(OC4OC(CO)C(O)C(O)C4O)c3c(O)c21 (stereo not drawn) [geshoidin] | > 10 | did not inhibit HIV-1 | – | – | – | EC50 ([2]; Human immunodeficiency virus 1, CEM-GXR, 96 h): > 100 µM |
| O=C(O[C@@H]1Cc2c(O)cc(O)cc2O[C@@H]1c1ccc(O)c(O)c1)c1cc(O)c(O)c(O)c1 [ECG, epicatechin gallate] | > 100 | did not observe antiviral activity | > 100 | – | – | – |
| CC(C)(C)NC(=O)[C@@H]1CN(Cc2cccnc2)CCN1C[C@@H](O)C[C@@H](Cc1ccccc1)C(=O)N[C@H]1c2ccccc2C[C@H]1O [IND, Indinavir, reference compound] | – | – | – | inhibited | inhibited | HIV-1PR+RT replication fold higher than HIV-1NL4-3 [5]: 2.7 fold |
| COc1cc2ccc3c(OC)c(O)ccc3c2c(OC)c1O [PA, 1,5,7-trimethoxyphenanthrene-2,6-diol] | < 30 | – | – | – | – | CC50 [14]: 26.8 µM |

Reference: paper PMC4382154, “Screening of the Pan-African Natural Product Library Identifies Ixoratannin A-2 and Boldine as Novel HIV-1 Inhibitors” (PLoS ONE, 2015)
